Results published in ChEMBL document CHEMBL1201862, “PubChem BioAssay data set” (2004).
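1) Cells in 96-well plates. 2) Compound, 48 h, 5 concentrations. 3) Linear interpolation between surrounding doses. 4) Unreached endpoint = highest concentration. GI50 marks 50% less growth.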 The source made the active and inactive calls. Cut-off read from the data, not from the text of the source: active = GI50 up to about 1.1 µM and inactive = higher.

Key:
Test in all cases: growth of human tumour cells (NCI), 48 h
NCI-H522 = test system: NCI-H522
IGROV-1 = test system: IGROV-1
KM12 = test system: KM12
SK-MEL-28 = test system: SK-MEL-28
ACHN = test system: ACHN
U-251 = test system: U-251
Malme-3M = test system: Malme-3M
SNB-75 = test system: SNB-75
UACC-62 = test system: UACC-62
OVCAR-5 = test system: OVCAR-5
NCI-H460 = test system: NCI-H460
SK-MEL-2 = test system: SK-MEL-2
SK-MEL-5 = test system: SK-MEL-5
A498 = test system: A498
HOP-62 = test system: HOP-62
OVCAR-4 = test system: OVCAR-4
COLO 205 = test system: COLO 205
A549 = test system: A549
NCI-H226 = test system: NCI-H226
MCF7 = test system: MCF7

Measured: GI50

COc1ccccc1OCc1nnc(SCC(=O)O)n1-c1ccccc1
inactive: NCI-H522 > 100 µM | IGROV-1 > 100 µM | KM12 > 100 µM | SK-MEL-28 > 100 µM | ACHN > 100 µM | U-251 > 100 µM | Malme-3M > 100 µM | SNB-75 > 100 µM | UACC-62 > 100 µM | OVCAR-5 > 100 µM | NCI-H460 > 100 µM | SK-MEL-2 > 100 µM | SK-MEL-5 > 100 µM | A498 > 100 µM | HOP-62 > 100 µM | OVCAR-4 > 100 µM | COLO 205 > 100 µM | A549 > 100 µM | NCI-H226 > 100 µM

CC(C)(C)N/C(N)=N/C#N
inactive: MCF7 > 100 µM | IGROV-1 > 100 µM | SK-MEL-28 > 100 µM | ACHN > 100 µM | U-251 > 100 µM | Malme-3M > 100 µM | SNB-75 > 100 µM | UACC-62 > 100 µM | OVCAR-5 > 100 µM | NCI-H460 > 100 µM | SK-MEL-2 > 100 µM | SK-MEL-5 > 100 µM | HOP-62 > 100 µM | OVCAR-4 > 100 µM | COLO 205 > 100 µM | A549 > 100 µM

CCOC(=O)C1=C(NC(C)(C)C)OC/C1=N\NC(=O)Cc1ccccc1
inactive: NCI-H522 > 100 µM | IGROV-1 > 100 µM | KM12 > 100 µM | SK-MEL-28 > 100 µM | ACHN > 100 µM | U-251 > 100 µM | Malme-3M > 100 µM | SNB-75 27.9 µM | UACC-62 > 100 µM | OVCAR-5 > 100 µM | NCI-H460 > 100 µM | SK-MEL-2 > 100 µM | SK-MEL-5 > 100 µM | A498 > 100 µM | HOP-62 > 100 µM | OVCAR-4 > 100 µM | COLO 205 > 100 µM | A549 > 100 µM | NCI-H226 > 100 µM

CCOC(=O)CC(NCc1ccc(/N=C/c2nc3ccc(C(F)(F)F)cc3nc2-c2ccccc2)cc1)C(=O)OCC (stereo not given)
inactive: NCI-H522 > 100 µM | IGROV-1 > 63.1 µM | KM12 > 100 µM | SK-MEL-28 > 100 µM | ACHN > 58.6 µM | U-251 21.8 µM | Malme-3M > 100 µM | SNB-75 12.1 µM | UACC-62 13.7 µM | OVCAR-5 > 100 µM | NCI-H460 > 100 µM | SK-MEL-2 > 47.3 µM | SK-MEL-5 > 78.7 µM | A498 > 61.1 µM | HOP-62 29 µM | OVCAR-4 > 100 µM | COLO 205 > 100 µM | A549 > 100 µM | NCI-H226 > 100 µM

CC(C)C(NCc1c2ccccc2[n+]([O-])c2ccccc12)C(=O)O (stereo not given)
inactive: NCI-H522 34.5 µM | IGROV-1 89.1 µM | KM12 52.6 µM | SK-MEL-28 44.7 µM | ACHN 42.3 µM | U-251 38.1 µM | Malme-3M 92.7 µM | SNB-75 20.9 µM | UACC-62 56.6 µM | OVCAR-5 > 100 µM | NCI-H460 68.9 µM | SK-MEL-2 81.1 µM | SK-MEL-5 46.5 µM | A498 > 100 µM | HOP-62 > 100 µM | OVCAR-4 41.1 µM | COLO 205 > 100 µM | A549 > 100 µM | NCI-H226 35.4 µM

C[N+](C)(C)CC(=O)N/N=C(\C(=O)NC1=C(Cl)C(=O)c2ccccc2C1=O)C(C#N)c1csc(-c2ccc([N+](=O)[O-])cc2)n1 (stereo not given)
inactive: NCI-H522 > 100 µM | IGROV-1 > 100 µM | KM12 > 100 µM | SK-MEL-28 > 100 µM | ACHN > 100 µM | U-251 > 100 µM | Malme-3M > 100 µM | SNB-75 > 100 µM | UACC-62 > 100 µM | OVCAR-5 > 100 µM | NCI-H460 > 100 µM | SK-MEL-2 > 100 µM | SK-MEL-5 > 100 µM | A498 > 100 µM | HOP-62 > 100 µM | OVCAR-4 > 100 µM | COLO 205 > 100 µM | A549 > 100 µM | NCI-H226 > 100 µM

COC(=O)C(C(=O)C(=O)Nc1cccc([N+](=O)[O-])c1)c1nc2ccc([N+](=O)[O-])cc2nc1O (stereo not given)
inactive: NCI-H522 > 100 µM | IGROV-1 > 100 µM | KM12 > 100 µM | SK-MEL-28 > 100 µM | ACHN > 100 µM | U-251 > 100 µM | Malme-3M > 100 µM | SNB-75 70.6 µM | UACC-62 > 100 µM | OVCAR-5 > 100 µM | NCI-H460 > 100 µM | SK-MEL-2 > 100 µM | SK-MEL-5 > 100 µM | A498 > 100 µM | HOP-62 > 100 µM | OVCAR-4 > 100 µM | COLO 205 > 100 µM | A549 > 100 µM | NCI-H226 > 100 µM
